Measured values published in the NIST ThermoML archive (doi:10.1021/je060271a).
Numbers after ± are expanded uncertainties.

Settings: 283.15 K, Liquid, Vibrating tube method

CCCCCC(=O)OCC(COC(=O)CCCCC)(COC(=O)CCCCC)COC(=O)CCCCC [pentaerythritol tetrahexanoate]
Settings | mass density [kg/m3]
17954 kPa | 1014.2 ± 1.2
17972 kPa | 1014.2 ± 1.2
17987 kPa | 1014.3 ± 1.2
18002 kPa | 1014.3 ± 1.2
18020 kPa | 1014.4 ± 1.2
18035 kPa | 1014.3 ± 1.2
18050 kPa | 1014.4 ± 1.2
18068 kPa | 1014.4 ± 1.2
18083 kPa | 1014.3 ± 1.2
18098 kPa | 1014.3 ± 1.2
18116 kPa | 1014.5 ± 1.2
18131 kPa | 1014.3 ± 1.2
18146 kPa | 1014.4 ± 1.2
18161 kPa | 1014.3 ± 1.2
18179 kPa | 1014.4 ± 1.2
18195 kPa | 1014.4 ± 1.2
18210 kPa | 1014.5 ± 1.2
18228 kPa | 1014.4 ± 1.2
18243 kPa | 1014.5 ± 1.2
18259 kPa | 1014.6 ± 1.2
18277 kPa | 1014.5 ± 1.2
18292 kPa | 1014.4 ± 1.2
18308 kPa | 1014.5 ± 1.2
18326 kPa | 1014.5 ± 1.2
18341 kPa | 1014.6 ± 1.2
18356 kPa | 1014.6 ± 1.2
18375 kPa | 1014.5 ± 1.2
18391 kPa | 1014.5 ± 1.2
18407 kPa | 1014.6 ± 1.2
18425 kPa | 1014.6 ± 1.2
18441 kPa | 1014.6 ± 1.2
18457 kPa | 1014.6 ± 1.2
18472 kPa | 1014.5 ± 1.2
18491 kPa | 1014.6 ± 1.2
18506 kPa | 1014.6 ± 1.2
18522 kPa | 1014.6 ± 1.2
18541 kPa | 1014.5 ± 1.2
18557 kPa | 1014.7 ± 1.2
18576 kPa | 1014.6 ± 1.2
18592 kPa | 1014.6 ± 1.2
18608 kPa | 1014.7 ± 1.2
18624 kPa | 1014.6 ± 1.2
18643 kPa | 1014.6 ± 1.2
18659 kPa | 1014.7 ± 1.2
18676 kPa | 1014.7 ± 1.2
18695 kPa | 1014.7 ± 1.2
18711 kPa | 1014.7 ± 1.2
18727 kPa | 1014.7 ± 1.2
18746 kPa | 1014.7 ± 1.2
18763 kPa | 1014.8 ± 1.2
18779 kPa | 1014.7 ± 1.2
18796 kPa | 1014.7 ± 1.2
18815 kPa | 1014.9 ± 1.2
18832 kPa | 1014.7 ± 1.2
18848 kPa | 1014.9 ± 1.2
18868 kPa | 1014.8 ± 1.2
18884 kPa | 1014.9 ± 1.2
18901 kPa | 1014.7 ± 1.2
18917 kPa | 1014.9 ± 1.2
18937 kPa | 1014.7 ± 1.2
18954 kPa | 1014.9 ± 1.2
18970 kPa | 1014.9 ± 1.2
18990 kPa | 1014.8 ± 1.2
19005 kPa | 1014.9 ± 1.2
19024 kPa | 1014.9 ± 1.2
19040 kPa | 1014.9 ± 1.2
19057 kPa | 1015 ± 1.2
19075 kPa | 1014.8 ± 1.2
19091 kPa | 1014.9 ± 1.2
19107 kPa | 1014.8 ± 1.2
19126 kPa | 1015 ± 1.2
19142 kPa | 1015 ± 1.2
19161 kPa | 1015 ± 1.2
19177 kPa | 1014.9 ± 1.2
19193 kPa | 1015 ± 1.2
19212 kPa | 1014.9 ± 1.2
19228 kPa | 1014.9 ± 1.2
19245 kPa | 1015.1 ± 1.2
19264 kPa | 1015 ± 1.2
19281 kPa | 1015.1 ± 1.2
19297 kPa | 1014.9 ± 1.2
19313 kPa | 1014.9 ± 1.2
19333 kPa | 1014.9 ± 1.2
19350 kPa | 1015 ± 1.2
19366 kPa | 1015 ± 1.2
19382 kPa | 1015.1 ± 1.2
19402 kPa | 1015 ± 1.2
19418 kPa | 1015.2 ± 1.2
19438 kPa | 1015.1 ± 1.2
19455 kPa | 1015.2 ± 1.2
19471 kPa | 1015.1 ± 1.2
19488 kPa | 1015.1 ± 1.2
19509 kPa | 1015.1 ± 1.2
19525 kPa | 1015.1 ± 1.2
19542 kPa | 1015.1 ± 1.2
19559 kPa | 1015.2 ± 1.2
19579 kPa | 1015.2 ± 1.2
19596 kPa | 1015.1 ± 1.2
19616 kPa | 1015.1 ± 1.2
19633 kPa | 1015.2 ± 1.2
19649 kPa | 1015.3 ± 1.2
19666 kPa | 1015.2 ± 1.2
19686 kPa | 1015.3 ± 1.2
19703 kPa | 1015.3 ± 1.2
19720 kPa | 1015.3 ± 1.2
19741 kPa | 1015.4 ± 1.2
19758 kPa | 1015.3 ± 1.2
19778 kPa | 1015.2 ± 1.2
19796 kPa | 1015.3 ± 1.2
19813 kPa | 1015.3 ± 1.2
19830 kPa | 1015.3 ± 1.2
19851 kPa | 1015.3 ± 1.2
19868 kPa | 1015.3 ± 1.2
19885 kPa | 1015.3 ± 1.2
19906 kPa | 1015.4 ± 1.2
19922 kPa | 1015.4 ± 1.2
19941 kPa | 1015.3 ± 1.2
19957 kPa | 1015.4 ± 1.2
19973 kPa | 1015.4 ± 1.2
19989 kPa | 1015.4 ± 1.2
20008 kPa | 1015.2 ± 1.2
20024 kPa | 1015.4 ± 1.2
20040 kPa | 1015.4 ± 1.2
20059 kPa | 1015.4 ± 1.2
20075 kPa | 1015.4 ± 1.2
20094 kPa | 1015.4 ± 1.2
20110 kPa | 1015.4 ± 1.2
20126 kPa | 1015.5 ± 1.2
20143 kPa | 1015.5 ± 1.2
20162 kPa | 1015.5 ± 1.2
20178 kPa | 1015.4 ± 1.2
20194 kPa | 1015.6 ± 1.2
20213 kPa | 1015.5 ± 1.2
20228 kPa | 1015.5 ± 1.2
20246 kPa | 1015.4 ± 1.2
20262 kPa | 1015.5 ± 1.2
20277 kPa | 1015.6 ± 1.2
20293 kPa | 1015.5 ± 1.2
20312 kPa | 1015.6 ± 1.2
20328 kPa | 1015.6 ± 1.2
20343 kPa | 1015.5 ± 1.2
20362 kPa | 1015.6 ± 1.2
20378 kPa | 1015.6 ± 1.2
20395 kPa | 1015.7 ± 1.2
20410 kPa | 1015.6 ± 1.2
